Inhibition data for 38 molecules are collected here from ChEMBL document CHEMBL3301451, “MMV Malaria Box gametocyte functional viability assay screening”.

Structures are written as SMILES.

Format in all cases: functional
Holding throughout (parameters): concentration or dose not given beside the values

The subject of one assay is Plasmodium berghei. Put plainly: MMV: P. berghei-infected blood was withdrawn from mice by cardiac pucture before being immediately added to ookinete culture medium containing test compounds. 26 hr later, GFP-positive ookinetes were identified and counted by automated microscopy. All compounds were tested in 4 independent experiments and data presented here is the mean.

The test system of assay [1] is Plasmodium falciparum. Nature of the assay: MMV: P. falciparum NF54 functionally mature Stage V gametocytes were incubated for 24 hr in the presence of the test compounds. Gamete formation was then triggered by addition of 2uM xantheurenic acid and temperature decrease to ~20C. Male gamete exflagellation was recorded and analysed by automated microscopy after 20 min. All compounds were tested in 4 independent experiments and data presented here is the mean.

Assay [2] concerns Plasmodium falciparum. Put plainly: MMV: P. falciparum NF54 functionally mature Stage V gametocytes were incubated for 24 hr in the presence of the test compounds. Gamete formation was then triggered by addition of 2uM xantheurenic acid and temperature decrease to ~20C. Female gamete formation was recorded 24 hr later by automated microscopy detection of surface labelling of female gametes with a Cy3-conjugated antibody reactive to Pfs25. All compounds were tested in 4 independent experiments and data presented here is the mean. Conditions: NF54, 24 h.

For `O=C(Nc1ccc(Cl)c(Cl)c1)Nc1ccc(Cl)c(Cl)c1`, the inhibition in the assay on Plasmodium berghei is -17.89%; in the assay with Plasmodium falciparum [1], -55.6%; in the assay on Plasmodium falciparum [2], -21.6%.
For `Cc1sc(NC(=O)c2ccccc2)c(C(c2cccs2)N2CCN(c3ccccc3)CC2)c1C` (centres undefined) the same measures were -17.69%, 8.21% and -14.4%.
`CCOC(=O)c1c(C)n(-c2ccccc2)c2ccc(OC(=O)c3cc(OC)c(OC)c(OC)c3)cc12`: the inhibition with Plasmodium berghei was -17.17%; with Plasmodium falciparum [1], 18.3%; in the assay with Plasmodium falciparum [2], -31.5%.
`CCN(CC)CCNc1ncnc2c1[nH]c1ccc(Cl)cc12`: the inhibition in the assay on Plasmodium berghei was -19.34%; in the assay with Plasmodium falciparum [1], -43.5%; in the assay on Plasmodium falciparum [2], -27.6%.
For `O=C(Nc1ccc(Br)cc1)Nc1cccc(Cl)c1` the same measures were -16.14%, 24.2% and -16.5%.
With `COc1ccc(C(=O)Nc2ccc3nc(N4CCCCC4)cc(C)c3c2)cc1OC`, the inhibition in the assay with Plasmodium berghei was -18.9%; with Plasmodium falciparum [1], 9.9%; in the assay on Plasmodium falciparum [2] it was -48%.
For `Cc1ccc(C(=O)c2oc3ccc4c(C)cc(=O)oc4c3c2C)cc1`, in that order: -19.35%, -7.03% and -29.5%.
As to `COc1ccc(CN2CCCC(C(=O)c3ccc(C(F)(F)F)cc3)C2)c(O)c1` (centres undefined), the inhibition was -17.45% with Plasmodium berghei, 36.1% with Plasmodium falciparum [1] and 6.89% with Plasmodium falciparum [2].
For `O=C(CCl)NCCOc1ccc(Cl)cc1Cl` the same measures were -18.34%, 13.7% and -30.6%.
In the case of `CC(=O)c1ccc(NC(=O)CSc2nc(-c3ccccc3Cl)ns2)cc1`, the figures for the inhibition in the assay on Plasmodium berghei, in the assay on Plasmodium falciparum [1] and with Plasmodium falciparum [2] were -19.34%, 33.1% and 2.09%, respectively.
For `O=[N+]([O-])c1ccc(C=NNc2nc3ccccc3[nH]2)cc1` the same measures were -19.94%, 18.3% and -17%.
For the molecule `CCOc1cc(Br)c(C(C)NC(=O)c2cccc(OC)c2)cc1OCC` (centres undefined), the inhibition in the assay with Plasmodium berghei was -20.12%; in the assay with Plasmodium falciparum [1], 10.3%; in the assay on Plasmodium falciparum [2], -28.3%.
In the case of `CC(C)=CCN1CCC(C(=O)Nc2ccc(-c3nc4ccccc4[nH]3)cc2)CC1`, the figures for the inhibition in the assay with Plasmodium berghei, with Plasmodium falciparum [1] and with Plasmodium falciparum [2] were -16.54%, -15.4% and -19.7%, respectively.
For `Cl.Cn1c(=O)n(C)c2cc(CNCCNc3ccnc4cc(Cl)ccc34)ccc21` the same measures were -19.76%, -3.18% and -26.8%.
`O=C(Nc1ccc(CN2CCOCC2)cc1)c1ccc(-c2cc(Cl)ccc2Cl)o1`: the inhibition was -15.91% in the assay on Plasmodium berghei, 2.57% in the assay on Plasmodium falciparum [1] and -21.4% in the assay on Plasmodium falciparum [2].
On to `COc1ccc(Nc2cc(C)nc(NCc3ccccc3)n2)cc1`, for which the inhibition with Plasmodium berghei is -20.03%; in the assay with Plasmodium falciparum [1] it was -9.51%; in the assay on Plasmodium falciparum [2], -30.5%.
For `COc1ccccc1CNC(=O)CCn1c(=O)[nH]c2ccccc2c1=O` the same measures were -17.49%, 13.3% and -26.4%.
For `CCOC(=O)c1cnc2ccc(OC)cc2c1Nc1ccc(N2CCN(C)CC2)cc1` the same measures were -18.25%, -13.9% and -40%.
For `COc1cc(OC)c(N(C)C(=O)c2cc3c(s2)-c2ccccc2S(=O)(=O)C3)cc1Cl`, the inhibition in the assay on Plasmodium berghei was -16.25%; in the assay on Plasmodium falciparum [1], 7.68%; in the assay with Plasmodium falciparum [2] it was -14.9%.
In the case of `CN1C=C(c2ccc3ccccc3n2)C(c2c[nH]c3ccccc23)c2ccccc21` (centres undefined), the inhibition was -19.58% with Plasmodium berghei, -6.39% in the assay on Plasmodium falciparum [1] and -36.4% in the assay with Plasmodium falciparum [2].
For the molecule `Cc1cc(NC(=O)C2c3ccccc3C(=O)N(CC(C)C)C2c2cccs2)no1` (centres undefined), the inhibition in the assay on Plasmodium berghei was -16.54%; with Plasmodium falciparum [1], 52.5%; in the assay with Plasmodium falciparum [2], 40.3%.
For `COc1ccc(Br)cc1C1Nc2ccc3ccccc3c2C2=C1C(=O)CC(c1ccccc1)C2` (centres undefined), in that order: -18.54%, 9.97% and -13.2%.
On to `CC1CCN(Cc2ccc(NC(=O)c3cc4ccc5cccnc5c4[nH]3)cc2)CC1`, for which the inhibition with Plasmodium berghei is -17.24%; in the assay with Plasmodium falciparum [1] it was 10.2%; with Plasmodium falciparum [2] it was -3.24%.
For `CCOc1cc2c(cc1OCC)C(c1cc(C)c(O)c(C)c1)NCC2.Cl` (centres undefined), in that order: -16.67%, -7.71% and 20.2%.
For `OC(CNC1CCCC1)Cn1c2ccccc2c2ccccc21` (centres undefined), the inhibition in the assay with Plasmodium berghei is -16.75%; in the assay on Plasmodium falciparum [1], -4.27%; in the assay with Plasmodium falciparum [2] it was 12.4%.
`COc1cccc(C(=O)NC(c2ccc(C)cc2)c2cc(Cl)c3cccnc3c2O)c1` (centres undefined): the inhibition in the assay on Plasmodium berghei was -20.64%; in the assay on Plasmodium falciparum [1] it was 19.5%; in the assay with Plasmodium falciparum [2], 0.843%.
For `Cc1ccc(NC(=O)Nc2cccc(Cl)c2)cc1F`, in that order: -16.5%, 2.14% and -4.87%.
With `Br.CCn1c2c(c(=N)c3c1CCC3)CCCC2`, the inhibition in the assay with Plasmodium berghei was -17.86%; in the assay with Plasmodium falciparum [1], -42.4%; with Plasmodium falciparum [2], -26.2%.
For `Clc1ccc2[nH]c3c(NCCCN4CCOCC4)ncnc3c2c1` the same measures were -16.54%, 21.6% and -15.9%.
Consider `Cc1cc(Nc2ccc(Cl)cc2)n2nc(C(F)(F)F)nc2n1`, for which the inhibition was -18.89% in the assay with Plasmodium berghei, 15.3% in the assay with Plasmodium falciparum [1] and -10.6% in the assay on Plasmodium falciparum [2].
As for `COc1ccc(CN2CCN(Cc3ccccc3)CC2)c(O)c1`, the inhibition in the assay on Plasmodium berghei is -17.51%; in the assay on Plasmodium falciparum [1] it was -11.1%; with Plasmodium falciparum [2], -16.4%.
Consider `COc1ccc(C(C)=O)cc1N1C(=O)C2C(C1=O)C1(c3ccccc3)C(=O)C2(c2ccccc2)C(c2ccc(C)cc2)=C1c1ccc(C)cc1` (centres undefined), for which the inhibition in the assay on Plasmodium berghei is -19.71%; with Plasmodium falciparum [1] it was 21.8%; with Plasmodium falciparum [2], -9.11%.
As for `CCCCCCc1cc(O)c2c3c(c(=O)oc2c1)CCC(C)C3` (centres undefined), the inhibition with Plasmodium berghei was -17.21%; in the assay on Plasmodium falciparum [1] it was -1.29%; in the assay on Plasmodium falciparum [2], -7.13%.
For `CCOc1ccc2nc(C)cc(Nc3ccc(Br)cc3)c2c1`, in that order: -16.41%, -29.1% and -27.4%.
Regarding `COc1cc2c3cc1Oc1c(OC)c(OC)cc4c1C(Cc1ccc(O)c(c1)Oc1ccc(cc1)CC3N(C)CC2)N(C)CC4.Cl` (centres undefined), the inhibition was -16.79% with Plasmodium berghei, -64.1% in the assay on Plasmodium falciparum [1] and -37.2% with Plasmodium falciparum [2].
As for `CCOC(=O)C1CCN(C(=O)CN2C(=O)c3ccccc3C2c2c[nH]c3ccccc23)CC1` (centres undefined), the inhibition in the assay on Plasmodium berghei is -16.49%; with Plasmodium falciparum [1] it was 32.6%; with Plasmodium falciparum [2], -26%.
With `Cc1ccc(Nc2nc(NCCO)c3ccccc3n2)cc1C`, the inhibition with Plasmodium berghei is -19.56%; in the assay with Plasmodium falciparum [1], 12.7%; in the assay with Plasmodium falciparum [2], -25.6%.
Regarding `CN1CCN(c2nc(Nc3ccc(O)cc3)nc3ccccc23)CC1.Cl`, the inhibition was -15.95% in the assay with Plasmodium berghei, 2% in the assay on Plasmodium falciparum [1] and -25.1% in the assay on Plasmodium falciparum [2].

One may read the inhibition as the relative decrease from the control value, in per cent.
